# Experimental data as given in patent publication US20120009280A1, “METHOD OF REDUCING THE RATE OF DEGRADATION OF A BIOLOGICAL MATERIAL” (Bio-Energy Ingredients Limited, priority 2009, published 2012).
# Columns and labels:
# Assay type in all cases: cell-based
# yeast [1] = assay: Yeast count of spent brewer's / wet distiller's grains stored at ambient temperature; settings: wet distiller's grains
# yeast [2] = assay: as above
# Description: (§1) Samples of Portion 1 (“AR”), Portion 3 (“SO”) and Portion 5 (“SH”) were then delivered to a microbiological testing facility about 15 kilometres from the treatment laboratory. Each was tested for initial total microbial, yeast and mould counts, respectively.
# (§2) Separate untreated samples were similarly stored under insect-proof screens at ambient temperature for seven days (as shown in Tables 1 and 2). During the trial period the ambient temperature ranged from 11 to 33 degrees C.
# (§3) The free moisture content on the initial spent brewer's grains was determined to be 78.1% m/m. After exposure to the environment for seven days, all of the samples were tested at a South African National Accreditation System (SANAS) approved microbiological testing facility. Each was tested for total micro-organism, yeast and mould counts to determine the affect of the various treatments. A similar procedure to that described in K. A. Rosentrater et al, Food Bioprocess Technol (2008) was used for the microbiological evaluation.
# (§4) At the laboratory, the samples were thoroughly mixed and initially split into a first portion (Portion 1) and a second portion (Portion 2). Portion 1 was left untreated. A sample of Portion 1, was delivered immediately to a microbiological testing facility about 15 kilometres away from the treatment laboratory and was tested for initial total microbial, yeast and mould counts, respectively. No water removal prior to treatment was done in this experiment as was the case in Example 8 wherein a similar wet material was partially dewatered by pressing and the residue treated with 10% (w/w/) calcium oxide.
# (§5) Samples from Portion 2 were subjected to treatment with varying amounts of a powdered, commercially-available calcium oxide containing approximately 94% calcium oxide (CaO) as shown in Table 32. The treatments varied from 2.5 to 10% (w/w) calcium oxide addition. The samples were stored in batches (according to the calcium oxide treatment) under insect-proof screens at ambient temperature for fifty six days. Separate untreated samples were similarly stored under insect-proof screens at ambient temperature for a total of 56 days. During the trial period the ambient temperature ranged from 10 to 30 degrees C. As this period was the southern hemisphere spring/early summer, the humidity as well as ambient temperatures varied widely.
# as §3, with “79.4%” for “78.1%”
# (§6) Samples from each treatment were drawn every seven days. No further calcium oxide treatment or agitation took place after the initial mix. In each case the entire sample was isolated and delivered to the microbiological testing facility.
# (§7) The calcium oxide treatment trial described in Example 9 wherein wet distiller's grains were treated with 2.5%, 5% and 10.0% calcium oxide, respectively, versus untreated material was repeated using lower doses of calcium oxide. In this trial the same source of wet distiller's grains (again with now partial water removal prior to treatment) was treated. Also, the same protocol as described in Example 9 was applied, but at lower doses of calcium oxide i.e. 0.5%, 1.0%, 1.5%, 2.0% and 2.5%, respectively, versus untreated material.
# (§8) In this trial the same source of wet distiller's grains (again with now partial water removal prior to treatment) was treated. Also, the same protocol as described in Example 9 was applied.
# mould = assay: Mould count of spent brewer's / wet distiller's grains stored at ambient temperature
# Description: as §1, §2, §3, §4
# as §5, with “The treatments varied from 2.5 to 10% (w/w) calcium oxide addition.” left out
# as §3, with “79.4%” for “78.1%”
# as §6, §7, §8
# [3] = wet distiller's grains, 0.5% CaO (w/w), day 2
# [4] = wet distiller's grains, 1.0% CaO (w/w), day 1
# [5] = wet distiller's grains, 1.5% CaO (w/w), day 10
# [6] = wet distiller's grains, 2.0% CaO (w/w), day 2
# [7] = wet distiller's grains, 2.5% CaO (w/w), day 14
# [8] = wet distiller's grains, 5.0% CaO (w/w), day 21
# [9] = wet distiller's grains, 10.0% CaO (w/w), day 14
structure (smiles),measurement,setting,value
[O]=[Ca] [calcium oxide],Yeast Count,"yeast [1]; 5.0% CaO (w/w), day 14",10 cfu/gram
same,Yeast Count,"yeast [1]; 5.0% CaO (w/w), day 42",10 cfu/gram
same,Yeast Count,"yeast [1]; 5.0% CaO (w/w), day 49",20 cfu/gram
same,Yeast Count,"yeast [1]; 5.0% CaO (w/w), day 56",20 cfu/gram
same,Yeast Count,"yeast [1]; 10.0% CaO (w/w), day 7",10 cfu/gram
same,Yeast Count,"yeast [1]; 10.0% CaO (w/w), day 21",10 cfu/gram
same,Yeast Count,"yeast [1]; 10.0% CaO (w/w), day 42",10 cfu/gram
same,Yeast Count,"yeast [1]; 10.0% CaO (w/w), day 49",10 cfu/gram
same,Yeast Count,"yeast [1]; 10.0% CaO (w/w), day 56",10 cfu/gram
same,Yeast Count,"yeast [2]; 5% CaO (w/w) powder, week 4",10 cfu/gram
same,Yeast Count,yeast [2]; [3],<10 cfu/gram
same,Yeast Count,yeast [2]; [4],<10 cfu/gram
same,Yeast Count,yeast [2]; [5],<10 cfu/gram
same,Yeast Count,yeast [2]; [6],<10 cfu/gram
same,Yeast Count,yeast [2]; [7],"52,000 cfu/gram"
same,Yeast Count,yeast [2]; [8],10 cfu/gram
same,Yeast Count,yeast [2]; [9],120 cfu/gram
same,Mould Count,"mould; 5% CaO (w/w) powder, week 1",10 cfu/gram
same,Mould Count,"mould; 5% CaO (w/w) powder, week 2",10 cfu/gram
same,Mould Count,"mould; 5% CaO (w/w) powder, week 3",10 cfu/gram
same,Mould Count,"mould; 5% CaO (w/w) powder, week 4",10 cfu/gram
same,Mould Count,"mould; 5% CaO (w/w) powder, week 5",10 cfu/gram
same,Mould Count,"mould; wet distiller's grains, 0.5% CaO (w/w), day 1",<10 cfu/gram
same,Mould Count,mould; [3],30 cfu/gram
same,Mould Count,"mould; wet distiller's grains, 0.5% CaO (w/w), day 3",100 cfu/gram
same,Mould Count,"mould; wet distiller's grains, 0.5% CaO (w/w), day 6",37000 cfu/gram
same,Mould Count,"mould; wet distiller's grains, 0.5% CaO (w/w), day 8",<10 cfu/gram
same,Mould Count,mould; [4],<10 cfu/gram
same,Mould Count,"mould; wet distiller's grains, 1.0% CaO (w/w), day 2",<10 cfu/gram
same,Mould Count,"mould; wet distiller's grains, 1.0% CaO (w/w), day 3",<10 cfu/gram
same,Mould Count,"mould; wet distiller's grains, 1.0% CaO (w/w), day 6",<10 cfu/gram
same,Mould Count,"mould; wet distiller's grains, 1.0% CaO (w/w), day 8",<10 cfu/gram
same,Mould Count,"mould; wet distiller's grains, 1.0% CaO (w/w), day 10",91000 cfu/gram
same,Mould Count,"mould; wet distiller's grains, 1.5% CaO (w/w), day 1",<10 cfu/gram
same,Mould Count,"mould; wet distiller's grains, 1.5% CaO (w/w), day 2",<10 cfu/gram
same,Mould Count,"mould; wet distiller's grains, 1.5% CaO (w/w), day 3",<10 cfu/gram
same,Mould Count,"mould; wet distiller's grains, 1.5% CaO (w/w), day 6",<10 cfu/gram
same,Mould Count,"mould; wet distiller's grains, 1.5% CaO (w/w), day 8",<10 cfu/gram
same,Mould Count,mould; [5],<110 cfu/gram
same,Mould Count,"mould; wet distiller's grains, 2.0% CaO (w/w), day 1",<10 cfu/gram
same,Mould Count,mould; [6],<10 cfu/gram
same,Mould Count,"mould; wet distiller's grains, 2.0% CaO (w/w), day 3",<10 cfu/gram
same,Mould Count,"mould; wet distiller's grains, 2.0% CaO (w/w), day 6",<10 cfu/gram
same,Mould Count,"mould; wet distiller's grains, 2.0% CaO (w/w), day 8",<10 cfu/gram
same,Mould Count,"mould; wet distiller's grains, 2.0% CaO (w/w), day 10",<10 cfu/gram
same,Mould Count,"mould; wet distiller's grains, 2.5% CaO (w/w), day 1",<10 cfu/gram
same,Mould Count,"mould; wet distiller's grains, 2.5% CaO (w/w), day 2",<10 cfu/gram
same,Mould Count,"mould; wet distiller's grains, 2.5% CaO (w/w), day 3",<10 cfu/gram
same,Mould Count,"mould; wet distiller's grains, 2.5% CaO (w/w), day 6",<10 cfu/gram
same,Mould Count,"mould; wet distiller's grains, 2.5% CaO (w/w), day 7",10 cfu/gram
same,Mould Count,"mould; wet distiller's grains, 2.5% CaO (w/w), day 8",<10 cfu/gram
same,Mould Count,"mould; wet distiller's grains, 2.5% CaO (w/w), day 10",<10 cfu/gram
same,Mould Count,mould; [7],"14,000 cfu/gram"
same,Mould Count,"mould; wet distiller's grains, 2.5% CaO (w/w), day 21","170,000 cfu/gram"
same,Mould Count,"mould; wet distiller's grains, 2.5% CaO (w/w), day 42","850,000 cfu/gram"
same,Mould Count,"mould; wet distiller's grains, 2.5% CaO (w/w), day 49","320,000 cfu/gram"
same,Mould Count,"mould; wet distiller's grains, 2.5% CaO (w/w), day 56","1,240,000 cfu/gram"
same,Mould Count,"mould; wet distiller's grains, 5.0% CaO (w/w), day 7",10 cfu/gram
same,Mould Count,"mould; wet distiller's grains, 5.0% CaO (w/w), day 14",10 cfu/gram
same,Mould Count,mould; [8],150 cfu/gram
same,Mould Count,"mould; wet distiller's grains, 5.0% CaO (w/w), day 42",20 cfu/gram
same,Mould Count,"mould; wet distiller's grains, 5.0% CaO (w/w), day 49",90 cfu/gram
same,Mould Count,"mould; wet distiller's grains, 5.0% CaO (w/w), day 56",90 cfu/gram
same,Mould Count,"mould; wet distiller's grains, 10.0% CaO (w/w), day 7",10 cfu/gram
same,Mould Count,mould; [9],10 cfu/gram
same,Mould Count,"mould; wet distiller's grains, 10.0% CaO (w/w), day 21",10 cfu/gram
same,Mould Count,"mould; wet distiller's grains, 10.0% CaO (w/w), day 42",70 cfu/gram
same,Mould Count,"mould; wet distiller's grains, 10.0% CaO (w/w), day 49",80 cfu/gram
same,Mould Count,"mould; wet distiller's grains, 10.0% CaO (w/w), day 56",16 cfu/gram
